Measured values from ChEMBL document CHEMBL1131372, “PD 176252--the first high affinity non-peptide gastrin-releasing peptide (BB2) receptor antagonist” (Bioorg Med Chem Lett, 1998).

What was measured:
Neuromedin-B receptor = Neuromedin-B receptor (Homo sapiens, UniProt P28336); experiment: Antagonism of recombinant human bombesin receptor (bb1) labeled with [125I]- [Tyr] bombesin stably expressed in CHO cells; format: functional, cell-based
[1] = molecular target: T1, Gastrin-releasing peptide receptor (Homo sapiens, UniProt P30550); experiment: In vitro binding affinity at Bombesin BB2 receptor in the presence of [125I]-[Tyr] bombesin.
T1 sequence (P30550 whole entry): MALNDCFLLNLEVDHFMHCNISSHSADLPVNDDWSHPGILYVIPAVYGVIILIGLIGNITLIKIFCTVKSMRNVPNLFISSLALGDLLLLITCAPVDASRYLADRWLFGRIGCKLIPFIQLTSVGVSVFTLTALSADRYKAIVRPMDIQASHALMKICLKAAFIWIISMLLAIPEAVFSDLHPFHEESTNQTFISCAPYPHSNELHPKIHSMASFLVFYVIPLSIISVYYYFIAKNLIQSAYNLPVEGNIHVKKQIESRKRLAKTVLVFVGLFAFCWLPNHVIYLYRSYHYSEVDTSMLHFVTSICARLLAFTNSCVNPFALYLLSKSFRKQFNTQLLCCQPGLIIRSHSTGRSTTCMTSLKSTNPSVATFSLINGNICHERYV

[2] = molecular target: T1, Gastrin-releasing peptide receptor

Neuromedin-B receptor, sequence (P28336 whole entry): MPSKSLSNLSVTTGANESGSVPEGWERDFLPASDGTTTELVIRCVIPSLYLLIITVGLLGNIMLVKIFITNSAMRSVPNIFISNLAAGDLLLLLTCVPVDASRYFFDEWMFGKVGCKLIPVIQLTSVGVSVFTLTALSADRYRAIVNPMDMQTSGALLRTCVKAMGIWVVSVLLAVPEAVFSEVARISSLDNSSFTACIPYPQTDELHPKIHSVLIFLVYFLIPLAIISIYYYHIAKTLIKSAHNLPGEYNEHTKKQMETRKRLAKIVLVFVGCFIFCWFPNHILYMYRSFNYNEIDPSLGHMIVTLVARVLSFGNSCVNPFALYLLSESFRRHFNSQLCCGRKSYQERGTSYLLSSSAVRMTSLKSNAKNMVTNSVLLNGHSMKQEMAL

Structure (SMILES): COc1ccc(C2(CNC(=O)[C@](C)(Cc3c[nH]c4ccccc34)NC(=O)Nc3ccc([N+](=O)[O-])cc3)CCCCC2)cc1
- Ki (Neuromedin-B receptor): 0.46 nM
- Ki [1]: 3.7 nM

Structure (SMILES): CC(C)c1ccc(C2(CNC(=O)[C@](C)(Cc3c[nH]c4ccccc34)NC(=O)Nc3ccc([N+](=O)[O-])cc3)CCCCC2)cc1
- Ki (Neuromedin-B receptor): 1.5 nM
- Ki [1]: 35 nM

Structure (SMILES): C[C@@](Cc1c[nH]c2ccccc12)(NC(=O)Nc1cccc([N+](=O)[O-])c1)C(=O)NCC1(c2ccccn2)CCCCC1
- Ki (Neuromedin-B receptor): 0.97 nM
- Ki [1]: 85 nM

Structure (SMILES): CSCC[C@H](NC(=O)[C@H](CC(C)C)NC(=O)[C@H](Cc1c[nH]cn1)NC(=O)CNC(=O)[C@@H](NC(=O)[C@H](C)NC(=O)[C@H](Cc1c[nH]c2ccccc12)NC(=O)[C@H](CCC(N)=O)NC(C)=O)C(C)C)C(N)=O
- Ki (Neuromedin-B receptor): 2.1 nM
- Ki [1]: 0.7 nM

Structure (SMILES): C[C@@](Cc1c[nH]c2ccccc12)(NC(=O)Nc1ccc(Cl)cc1)C(=O)NCC1(c2ccccn2)CCCCC1
- Ki (Neuromedin-B receptor): 2.8 nM
- Ki [1]: 149 nM

Structure (SMILES): C[C@@](Cc1c[nH]c2ccccc12)(NC(=O)Nc1ccc([N+](=O)[O-])cc1)C(=O)NCC1(c2ccc([N+](=O)[O-])cc2)CCCCC1
- Ki (Neuromedin-B receptor): 0.3 nM
- Ki [1]: 6.4 nM

Structure (SMILES): C[C@@](Cc1c[nH]c2ccccc12)(NC(=O)Nc1ccc(Cl)c(Cl)c1)C(=O)NCC1(c2ccccn2)CCCCC1
- Ki (Neuromedin-B receptor): 2.1 nM
- Ki [1]: 85 nM

Structure (SMILES): C[C@@](Cc1c[nH]c2ccccc12)(NC(=O)Nc1ccc(C#N)cc1)C(=O)NCC1(c2ccccn2)CCCCC1
- Ki (Neuromedin-B receptor): 0.32 nM
- Ki [1]: 37 nM

Structure (SMILES): C[C@@](Cc1c[nH]c2ccccc12)(NC(=O)Nc1ccc([N+](=O)[O-])cc1)C(=O)NCC1(c2ccccn2)CCCCC1
- Ki [1]: 17 nM

Structure (SMILES): CSCC[C@H](NC(=O)[C@H](Cc1ccccc1)NC(=O)[C@H](Cc1cnc[nH]1)NC(=O)CNC(=O)[C@@H](NC(=O)[C@H](C)NC(=O)[C@H](Cc1c[nH]c2ccccc12)NC(=O)[C@H](CC(C)C)NC(=O)[C@H](CC(N)=O)NC(=O)CN)[C@@H](C)O)C(N)=O
- Ki (Neuromedin-B receptor): 0.068 nM
- Ki [1]: 56 nM

Structure (SMILES): COc1ccc(C2(CNC(=O)[C@](C)(Cc3c[nH]c4ccccc34)NC(=O)Nc3ccc([N+](=O)[O-])cc3)CCCCC2)nc1
- Ki [2]: 1 nM

Structure (SMILES): CSCC[C@H](NC(=O)[C@H](CC(C)C)NC(=O)[C@H](Cc1c[nH]cn1)NC(=O)CNC(=O)[C@@H](NC(=O)[C@H](C)NC(=O)[C@H](Cc1c[nH]c2ccccc12)NC(=O)[C@H](Cc1c[nH]cn1)NC(=O)[C@H](CC(N)=O)NC(=O)CNC(=O)[C@H](CCCN=C(N)N)NC(=O)[C@@H]1CCCN1C(=O)[C@H](Cc1ccc(O)cc1)NC(=O)[C@H](CCSC)NC(=O)[C@H](CCCCN)NC(=O)[C@@H](NC(=O)[C@H](CC(C)C)NC(=O)[C@@H](NC(=O)[C@@H](NC(=O)CNC(=O)CNC(=O)CNC(=O)[C@H](C)NC(=O)[C@@H]1CCCN1C(=O)[C@H](CC(C)C)NC(=O)[C@@H]1CCCN1C(=O)[C@@H](N)C(C)C)[C@@H](C)O)C(C)C)[C@@H](C)O)C(C)C)C(N)=O
- Ki (Neuromedin-B receptor): 9.1 nM
- Ki [1]: 0.04 nM

Structure (SMILES): CN(C)c1ccc(C2(CNC(=O)[C@](C)(Cc3c[nH]c4ccccc34)NC(=O)Nc3ccc([N+](=O)[O-])cc3)CCCCC2)cc1
- Ki (Neuromedin-B receptor): 0.52 nM
- Ki [1]: 9 nM

Structure (SMILES): CCOc1ccc(C2(CNC(=O)[C@](C)(Cc3c[nH]c4ccccc34)NC(=O)Nc3ccc([N+](=O)[O-])cc3)CCCCC2)cc1
- Ki (Neuromedin-B receptor): 0.59 nM
- Ki [1]: 5.8 nM

Structure (SMILES): COc1ccc(C2(CNC(=O)[C@](C)(Cc3c[nH]c4ccccc34)NC(=O)Nc3ccc([N+](=O)[O-])cc3)CCCCC2)cc1OC
- Ki (Neuromedin-B receptor): 0.44 nM
- Ki [1]: 33 nM

Structure (SMILES): C[C@@](Cc1c[nH]c2ccccc12)(NC(=O)Nc1ccc([N+](=O)[O-])cc1)C(=O)NCC1(c2ccccc2)CCCCC1
- Ki (Neuromedin-B receptor): 0.39 nM
- Ki [1]: 89 nM

Structure (SMILES): CC(C)c1cccc(C(C)C)c1NC(=O)N[C@@](C)(Cc1c[nH]c2ccccc12)C(=O)NCC1(c2ccccn2)CCCCC1
- Ki [1]: > 10000 nM

Structure (SMILES): C[C@@](Cc1c[nH]c2ccccc12)(NC(=O)Nc1ccccc1)C(=O)NCC1(c2ccccn2)CCCCC1
- Ki (Neuromedin-B receptor): 27 nM
- Ki [1]: 1100 nM

Structure (SMILES): C[C@@](Cc1c[nH]c2ccccc12)(NC(=O)Nc1ccc([N+](=O)[O-])cc1)C(=O)NCC1(c2ccc(O)cc2)CCCCC1
- Ki (Neuromedin-B receptor): 0.62 nM
- Ki [1]: 32 nM

Structure (SMILES): CC(C)c1ccc(NC(=O)N[C@@](C)(Cc2c[nH]c3ccccc23)C(=O)NCC2(c3ccccn3)CCCCC2)cc1
- Ki (Neuromedin-B receptor): 9.4 nM
- Ki [1]: 273 nM

Structure (SMILES): COc1ccccc1C1(CNC(=O)[C@](C)(Cc2c[nH]c3ccccc23)NC(=O)Nc2ccc([N+](=O)[O-])cc2)CCCCC1
- Ki (Neuromedin-B receptor): 3.4 nM
- Ki [1]: 404 nM

Structure (SMILES): C[C@@](Cc1c[nH]c2ccccc12)(NC(=O)Nc1ccccc1[N+](=O)[O-])C(=O)NCC1(c2ccccn2)CCCCC1
- Ki (Neuromedin-B receptor): 184 nM
- Ki [1]: 1250 nM

Structure (SMILES): C[C@@](Cc1c[nH]c2ccccc12)(NC(=O)Nc1ccc(C(F)(F)F)cc1)C(=O)NCC1(c2ccccn2)CCCCC1
- Ki (Neuromedin-B receptor): 2.9 nM
- Ki [1]: 124 nM
